Measured values published in patent US5882671A, “Anxiolytic agents” (Eli Lilly and Company, priority 1997, dated 1999).
Entries after “also recorded” stand apart in the source; their conditions may differ. Counter-ions that a name gives are not always drawn. Like-named read-outs stand apart in the source and are kept apart here.

Columns and labels:
[1] = tested on: negatively coupled cAMP-linked metabotropic glutamate receptors; test: selectivity of agonism at metabotropic glutamate receptors
Text: As described previously herein, it is preferred to use an agonist which acts selectively at negatively coupled cAMP-linked metabotropic glutamate receptors (relative to other glutamate receptors) in the methods according to the invention. Such an agonist may be a single compound, for example one of the four compounds named hereinabove, or two or more compounds which, in combination function as an agonist which acts selectively at negatively coupled cAMP-linked metabotropic glutamate receptors.

[2] = tested on: fear potentiated startle response; test: fear potentiated startle model of anxiety; format: in vivo, Male Long Evans rats; conditions: statement in words
Text: In the fear potentiated startle model, animals are exposed to a neutral stimulus such as light (conditioned stimulus) with an aversive stimulus such as a shock (unconditioned stimulus). Following conditioning, when the animals are presented with a loud acoustic stimulus, larger startle responses are elicited when the startle stimulus is preceded by light. The difference in amplitude between the startle response when conditioned animals are exposed to the aversive stimulus paired with a neutral stimulus and the startle response when the conditioned animal is exposed only to the aversive stimulus is known as fear potentiated startle. The amplitude of the startle response when the animal is exposed only to the aversive stimulus is known as the baseline startle. Test compounds which are effective in this model decrease the fear potentiated startle response. It is emphasized that what is being determined experimentally is the difference between the startle response with paired stimuli and the baseline startle; test compounds which are anxiolytics may increase, decrease or leave unchanged the baseline startle response. (Davis, TiPS, January 1992 [Vol. 13], 35-41).
(§1) Male Long Evans rats (180-400 g) or male NIH Swiss mice (18-35 g) were obtained from Harlan Sprague-Dawley, Cumberland, Ind., U.S.A. and acclimated at least 3 days before testing. Animals were housed at 23°±2° C. (relative humidity 30% to 70%) and given Purina Certified Rodent Chow and water ad libitum. The photoperiod was 12 hours of light and 12 hours of dark, with dark onset at approximately 1800 hours.
(§2) Test compounds were dissolved in a vehicle of purified water and neutralized with 5N NaOH to a pH of 7-8 when applicable. […] Control animals received the respective vehicle.
SL-LAB (San Diego Instruments, San Diego, Calif.) chambers were used for conditioning sessions and for the production and recording of startle responses. A classical conditioning procedure was used to produce potentiation of startle responses. Briefly, on the first 2 days, rats were placed into dark startle chambers in which shock grids were installed. Following a 5-minute acclimation period, each rat received a 1 mA electric shock (500 ms) preceded by a 5 second presentation of light (15 watt) which remained on for the duration of the shock. Ten presentations of the light and shock were given in each conditioning session, […] A block of 10 consecutive presentations of acoustic startle stimuli (110 dB, non-light-paired) were presented at the beginning of the session in order to minimize the influences of the initial rapid phase of habituation to the stimulus. […]

[3] = tested on: fear potentiated startle response; conditions: reference anxiolytics, presentation of light, cited from earlier work
[4] = tested on: natural aversion to height and open spaces; conditions: reference anxiolytics, cited from earlier work
[5] = tested on: natural aversion to height and open spaces; test: automated elevated plus maze model of anxiety; format: in vivo, male NIH Swiss mice
Method: The elevated plus maze model is based upon the natural aversion of rodents to height and open spaces.
as §1, §2
Construction of the elevated plus-maze was based on a design validated for mice by Lister (1987). The entire maze was made of clear Plexiglas. The maze was comprised of two open arms (30×5×0.25 cm) and two enclosed arms (30×5×15 cm). The floor of each maze arm was corrugated to provide texture. The arms extended from a central platform and angled at 90 degrees from each other. The maze was elevated to a height of 45 cm above the floor and illuminated by red light. Individual infrared photocells were mounted along each arm of the maze to monitor closed, open, or nosepoke activity. Mice were individually placed on the central platform of the maze and the number of closed arm, open arm, and nosepoke (poking head only into open arm from closed arm of maze) counts were recorded and used as a measure of arm entries and time spent on various sections of the maze over a five-minute test period.

[6] = tested on: anxiety disorders; conditions: in vivo; cited from earlier work
[7] = tested on: negatively coupled cAMP-linked metabotropic glutamate receptors; conditions: Schoepp and Johnson, Neuropharmacology Vol. 32; cited from earlier work

## N[C@@]1(C(=O)O)CO[C@H]2[C@H](C(=O)O)[C@H]21 [1R,4R,5S,6R-4-amino-2-oxabicyclo[3.1.0]hexane-4,6-dicarboxylic acid]
[1]
  selectivity as agonist at negatively coupled cAMP-linked metabotropic glutamate receptors: act selectively as agonists
[2]
  efficacy in fear potentiated startle model of anxiety: effective

## N[C@]1(C(=O)O)CO[C@@H]2[C@@H](C(=O)O)[C@@H]21 (relative stereo) [1SR,4SR,5RS,6SR-4-amino-2-oxabicyclo[3.1.0]hexane-4,6-dicarboxylic acid]
[1]
  selectivity as agonist at negatively coupled cAMP-linked metabotropic glutamate receptors: act selectively as agonists
[2]
  efficacy in fear potentiated startle model of anxiety: effective

## CN1C(=O)CN=C(c2ccccc2)c2cc(Cl)ccc21 [Diazepam]
[3]
  reduction of fear (increased startle response) in the fear potentiated startle model: effective at reducing the fear
[4]
  reduction of fear of open spaces in the elevated plus maze model: reducing the fear of open spaces

## NC1(C(=O)O)CCC2C(C(=O)O)C21 (single isomer, unassigned; (+)) [(+)-2-Aminobicyclo[3.1.0]hexane-2,6-dicarboxylic Acid]
[1]
  selectivity as agonist at negatively coupled cAMP-linked metabotropic glutamate receptors: acts selectively as an agonist
[5]; oral, 3 mg/kg, mice, five-minute test period
  Nosepoke counts: significant increase
[5]; oral, 1, 3 and 10 mg/kg, mice, five-minute test period
  open arm activity: significant increases
[5]; oral, any dose, mice, five-minute test period
  Closed arm activity counts: not significantly altered
[5]; statement in words
  efficacy in elevated plus maze model of anxiety: effective
[2]
  efficacy in fear potentiated startle model of anxiety: effective

## N[C@@]1(C(=O)O)CS[C@@H]2[C@H](C(=O)O)[C@@H]21 (relative stereo) [1SR,4SR,5RS,6SR-4-amino-2-thiabicyclo[3.1.0]hexane-4,6-dicarboxylic acid]
[1]
  selectivity as agonist at negatively coupled cAMP-linked metabotropic glutamate receptors: act selectively as agonists
[2]
  efficacy in fear potentiated startle model of anxiety: effective

## O=C1CC2(CCCC2)CC(=O)N1CCCCN1CCN(c2ncccn2)CC1 [Buspirone hydrochloride, buspirone hydrochloride]
[6]
  dependence-inducing side effects: lacks the dependence-inducing side effects
[3]; hydrochloride
  reduction of fear (increased startle response) in the fear potentiated startle model: effective at reducing the fear
[4]; hydrochloride
  reduction of fear of open spaces in the elevated plus maze model: effective; also recorded: reducing the fear of open spaces

## N[C@@]1(C(=O)O)CC[C@@H](C(=O)O)C1 [1S,3R-1-aminocyclopentane-1,3-dicarboxylic acid]
[7]
  action at PI-linked metabotropic glutamate receptors: also acts at PI-linked metabotropic glutamate receptors
  selectivity at negatively coupled cAMP-linked metabotropic glutamate receptors: act non-selectively
